Measured values published in PubChem BioAssay (NCI).
Several values for one entry are separate records, joined by “and”; a condition that tells them apart may be missing. Identical values can stand only once.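 Grown in 96-well plates, cells were treated for 48 hours with each compound at five concentrations. Insufficient inhibition: endpoint recorded as highest concentration tested. The concentration for 50% growth inhibition is given as GI50. The concentration for full growth arrest is given as TGI.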

Experiments:
Experiment in all cases: DTP human tumour cell line panel, 48 h
[1] = system: M14 melanoma
[2] = system: CCRF-CEM leukemia
[3] = system: RPMI-8226 leukemia
[4] = system: MOLT-4 leukemia
[5] = system: HCT-116 colon
[6] = system: NCI-H522 lung
[7] = system: SF-268 CNS
[8] = system: NCI-H226 lung
[9] = system: OVCAR-8 ovarian
[10] = system: K-562 leukemia
[11] = system: SK-MEL-5 melanoma
[12] = system: A498 renal
[13] = system: CAKI-1 renal
[14] = system: KM12 colon
[15] = system: OVCAR-5 ovarian

Compound | TGI [1] [µM] | TGI [2] | TGI [3] | TGI [4] [µM] | TGI [5] | TGI [6] | TGI [7] | TGI [8] | TGI [9] [µM] | TGI [10] | TGI [11] | TGI [12] [µM] | TGI [13] [µM] | TGI [14] [µM] | TGI [15] [µM] | GI50 [2] [µM] | GI50 [15] [µM] | GI50 [9] [µM] | GI50 [12] [µM]
COc1ccc(C2=C(Cl)c3cc(OC)c(OC)cc3C2)cc1OC | > 100 | > 100 µM | > 100 µM | > 100 | > 100 µM | > 100 µM | > 100 µM | > 100 µM | > 100 | > 100 µM | > 100 µM | > 100 | – | – | – | – | – | – | –
CNc1ccc([N+](=O)[O-])c2c(NCCCN(C)C)ccnc12 | > 100 | > 100 µM | > 100 µM | > 100 | > 100 µM | > 100 µM | > 100 µM | > 100 µM | > 100 | > 100 µM | – | – | > 100 | > 100 | > 100 | – | – | – | –
O=C(NN1C(=O)C(Cl)C1c1ccccc1Cl)c1ccccc1O (centres undefined) | > 100 | > 100 µM | – | > 100 | > 100 µM | > 100 µM | > 100 µM | > 100 µM | > 100 | > 100 µM | > 100 µM | – | – | > 100 | – | – | – | – | –
O=c1[nH]c(=O)n(COCc2ccccc2)c2ccccc12 | > 100 | > 100 µM | – | > 100 | > 100 µM | – | – | > 100 µM | > 100 | > 100 µM | > 100 µM | > 100 | > 100 | > 100 | > 100 | – | – | – | –
COc1cc2c(c(OC)c1OC)-c1ccc(SC)c(=O)cc1[C@@H](NC(=O)c1ccc([N+](=O)[O-])cc1)CC2 | – | 25 µM | 25 µM and > 100 µM | – | 7.28 µM and 11.7 µM | – | 25 µM and > 100 µM | – | – | 25 µM and > 100 µM | 3.79 µM and 1.59 µM | 3.57 | – | – | 0.171 | – | – | – | –
N#Cc1cc([N+](=O)[O-])ccc1NC(=O)C(=O)C(C(=O)c1ccc2ccccc2c1)C1OCc2ccccc21 (centres undefined) | 30.1 | 39.2 µM | > 66.6 µM | 21.8 | 16.2 µM | 13.8 µM | 47.7 µM | 4.46 µM | 20.9 | 65.2 µM | 24.8 µM | 20.6 | > 50.3 | 30.4 | 29.2 | – | – | – | –
CS(=O)(=O)OCC1CCCCCCCCCCC12SCCCS2 (centres undefined) | > 100 | > 100 µM | – | > 100 | > 100 µM | > 100 µM | > 100 µM | > 100 µM | > 100 | > 100 µM | > 100 µM | > 100 | > 100 | > 100 | > 100 | – | – | – | –
COc1cc(C(O)C(=O)c2cnc3cc([N+](=O)[O-])ccc3n2)ccc1O (centres undefined) | > 100 | > 100 µM | > 100 µM | > 100 | > 100 µM | – | – | – | > 100 | > 100 µM | > 100 µM | > 100 | > 100 | > 100 | – | – | – | – | –
C[N+](C)(C)CC(CC(=O)[O-])C1CC1 (centres undefined) | > 100 | > 100 µM | > 100 µM | > 100 | – | > 100 µM | > 100 µM | – | > 100 | > 100 µM | > 100 µM | > 100 | > 100 | > 100 | > 100 | – | – | – | –
Cc1ccc(NC(=O)/C(=N/NC(=O)C[N+](C)(C)C)c2nc3ccccc3[nH]c2=O)cc1 | > 100 | – | > 100 µM | > 100 | > 100 µM | – | > 100 µM | > 100 µM | > 100 | – | > 100 µM | > 100 | > 100 | – | > 100 | – | – | – | –
CN1C=COC1N=C1CCCCC1 (centres undefined) | > 100 | > 100 µM | > 100 µM | > 100 | > 100 µM | > 100 µM | > 100 µM | > 100 µM | > 100 | > 100 µM | > 100 µM | > 100 | 9.16 | > 100 | > 100 | – | – | – | –
Cn1cnc(SC2=C3C(=O)C=C4S[C@H]5C[C@]42c2c(c(O)c4c6c2=[N+]3CCC=6C=N4)N5)c1CC(N)C(=O)O (some centres undefined) | 29.1 | 45.9 µM | 55.7 µM | 33.7 | 13.3 µM | 16.4 µM | 25.1 µM | 36.5 µM | 27.2 | 41.3 µM | 26.4 µM | 36.5 | 79.1 | 37.8 | 28.5 | – | – | – | –
C[N+](C)(C)CC(=O)N/N=C(/Cc1nc2ccc([N+](=O)[O-])cc2[nH]c1=O)C(=O)Nc1cc(C(F)(F)F)ccc1Cl | > 100 | > 100 µM | > 100 µM | > 100 | > 100 µM | > 100 µM | > 100 µM | – | > 100 | > 100 µM | > 100 µM | > 100 | > 100 | > 100 | > 100 | – | – | – | –
O=C(c1ccccc1)c1c(C(F)(F)F)n([O-])c2cc(F)c(F)cc2[n+]1=O | 1.49 | > 100 µM | > 100 µM | 1.97 | – | > 7.96 µM | 2.45 µM | 5.69 µM | 1.15 | – | 3.33 µM | 7.19 | 1.76 | 3.9 | 2.98 | 8.72 | – | – | –
NCCS(=O)(=O)O | > 100 | > 100 µM | > 100 µM | > 100 | > 100 µM | > 100 µM | > 100 µM | > 100 µM | > 100 | > 100 µM | > 100 µM | – | > 100 | > 100 | > 100 | – | – | – | –
O=C(Nc1ccc(Sc2ccc(N=Nc3c(O)c(S(=O)(=O)O)cc4cc(S(=O)(=O)O)ccc34)cc2)cc1)c1ccc(N=Nc2c(O)c(S(=O)(=O)O)cc3cc(S(=O)(=O)O)ccc23)cc1 | 91.8 | 64.3 µM | 56.2 µM | 36.8 | > 100 µM | 35.4 µM | > 100 µM | > 100 µM | > 100 | > 100 µM | 53.9 µM | > 100 | > 100 | > 100 | > 100 | – | – | – | –
COc1cccc([C@@H]2CC(=O)c3cc4c(cc3N2)OCO4)c1 | > 100 | > 100 µM | > 100 µM | – | > 100 µM | – | > 100 µM | > 100 µM | > 100 | > 100 µM | > 100 µM | > 100 | > 100 | > 100 | > 100 | – | – | – | –
CC1=NN(C(=O)Cc2ccccc2)C(=O)/C1=C\c1ccccc1O | > 100 | > 100 µM | > 100 µM | > 100 | > 100 µM | > 100 µM | > 100 µM | > 100 µM | > 100 | > 100 µM | > 100 µM | > 100 | > 100 | > 100 | > 100 | – | – | – | –
O=C(CSCC(=O)N/N=C\c1ccccc1F)N/N=C\c1ccccc1F | > 100 | > 100 µM | > 100 µM | > 100 | > 100 µM | > 100 µM | > 100 µM | > 100 µM | > 100 | – | > 100 µM | > 100 | > 100 | > 100 | – | – | – | – | –
OCC1OC(c2ccccc2)CC1O (centres undefined) | > 100 | > 100 µM | – | > 100 | > 100 µM | – | – | > 100 µM | > 100 | > 100 µM | > 100 µM | > 100 | > 100 | > 100 | > 100 | – | – | – | –
CO[C@]12CC(=O)C3(C(C[C@H]4CC5CC[C@H]6C[C@@H](OC(C)=O)CC[C@]6(OC(C)=O)C5C[C@@]43C)C1)C1C[C@H]3[C@@H]4CC[C@H]5C[C@@H](OC(C)=O)CC[C@]5(OC(C)=O)[C@H]4CC[C@]3(C)C12 (some centres undefined) | > 100 | > 100 µM | > 100 µM | > 100 | > 100 µM | – | > 100 µM | – | > 100 | > 100 µM | > 100 µM | > 100 | > 100 | > 100 | > 100 | – | – | – | –
COc1cc2c(c(OC)c1OC)-c1ccc(SC)c(=O)cc1[C@@H](NCc1cccc([N+](=O)[O-])c1)CC2 | 13.1 | > 100 µM | – | > 100 | < 0.01 µM | – | 28 µM | < 0.01 µM | 43.8 | 2.39 µM | – | – | > 100 | 0.0754 | > 100 | – | – | – | –
c1ccc2c(c1)Sc1ccccc1N2C1CN2CCC1CC2 (centres undefined) | – | 33.9 µM | 43.4 µM | 28.1 | 28.8 µM | 38.9 µM | 63 µM | 18.9 µM | 32.5 | 29.5 µM | 29.9 µM | 22.5 | 33.9 | 33.9 | – | – | – | – | –
Cc1c2oc3c(C)cc(F)c(C(=O)NC4C(=O)NC(C(C)C)C(=O)N5CCCC5C(=O)N(C)CC(=O)N(C)C(C(C)C)C(=O)OC4C)c3nc-2c(C(=O)NC2C(=O)NC(C(C)C)C(=O)N3CCCC3C(=O)N(C)CC(=O)N(C)C(C(C)C)C(=O)OC2C)c(N)c1=O (centres undefined) | – | 0.0385 µM and 0.309 µM | – | 0.00545 | – | 1.66 µM and 1.95 µM | 4.21 µM and 15.3 µM | 0.625 µM and 0.346 µM | – | – | 0.223 µM | 0.902 | 3.73 | – | 10.2 | – | 0.0688 | 0.142 | 0.85
